Here are results for twelve compounds from patent US12637473B2, “MDM2 protein degraders” (THE REGENTS OF THE UNIVERSITY OF MICHIGAN, priority 2016, dated 2026).

One assay relates to RS4; 11 cell line. The assay is described as follows: CellTiter-Glo Luminescent Cell Viability Assay, cell growth inhibition. The format is cell-based. The note with it: Homo sapiens, 96 h, 4 days. Here is the method: (§1) Cell growth inhibitory activity of representative MDM2 protein degraders was determined using CellTiter-Glo® Luminescent Cell Viability Assay. Cells were seeded in 384-well white opaque cell culture plates at a density of 2,000 cells/well with serially diluted compounds and incubated at 37° C. in an atmosphere of 95% air and 5% CO2 for 4 days. Cell viability was determined using the CellTiter-Glo® Luminescent Cell Viability Assay Kit (Promega, Madison, WI) according to the manufacture's instruction. Briefly, a volume of CellTiter-Glo® Reagent equal to the volume of cell culture medium was added to each well, and then the plates were incubated at room temperature for 10-20 minutes. The luminescent signal was measured using a Tecan Infinite M1000 multimode microplate reader (Tecan, Morrisville, NC). The half maximal inhibitory concentration (IC50) was calculated using the GraphPad Prism 5 software (GraphPad Software, La Jolla, CA). Cpd. […] The structure of Cpd.
On the technique in general: In ATP-based viability assays light output follows the ATP content of the culture.

In the next assay the test system is MV4-11 cell line. Described as above. Format: cell-based. The following applies: Homo sapiens, 96 h, 4 days. Here is the method: as §1

The structures appear in SMILES notation.

By IC50 is commonly meant the concentration at which inhibition is half-maximal. Low values mean inhibition by little substance, high ones a need for much substance. For the compound `O=C(COc1cccc2c1C(=O)N(C1CCC(=O)NC1=O)C2=O)NCCCCNC(=O)c1ccc(NC(=O)[C@@H]2NC3(CCCCC3)[C@@]3(C(=O)Nc4cc(Cl)ccc43)[C@H]2c2cccc(Cl)c2F)cc1` (stereo partly drawn) [Cpd. No. 1, (3′R,4'S,5′R)-6″-chloro-4′-(3-chloro-2-fluorophenyl)-N-(4-((4-(2-((2-(2,6-dioxopiperidin-3-yl)-1,3-dioxoisoindolin-4-yl)oxy)acetamido)butyl)carbamoyl)phenyl)-2″-oxodispiro[cyclohexane-1,2′-pyrrolidine-3′,3″-indoline]-5′-carboxamide], the IC50 with RS4; 11 cell line amounted to 233 nM; in the assay with MV4-11 cell line it was 416 nM.

For `O=C(COc1cccc2c1C(=O)N(C1CCC(=O)NC1=O)C2=O)NCCCOCCOCCOCCCNC(=O)c1ccc(NC(=O)[C@@H]2NC3(CCCCC3)[C@@]3(C(=O)Nc4cc(Cl)ccc43)[C@H]2c2cccc(Cl)c2F)cc1` (stereo partly drawn) [Cpd. No. 2, (3′R,4'S,5′R)-6″-chloro-4′-(3-chloro-2-fluorophenyl)-N-(4-((1-((2-(2,6-dioxopiperidin-3-yl)-1,3-dioxoisoindolin-4-yl)oxy)-2-oxo-7,10,13-trioxa-3-azahexadecan-16-yl)carbamoyl)phenyl)-2″-oxodispiro[cyclohexane-1,2′-pyrrolidine-3′,3″-indoline]-5′-carboxamide], the IC50 in the assay on RS4; 11 cell line is 85 nM; with MV4-11 cell line, 157 nM.

Turning to `O=C(CNc1cccc2c1C(=O)N(C1CCC(=O)NC1=O)C2=O)NCCCOCCOCCOCCCNC(=O)c1ccc(NC(=O)[C@@H]2NC3(CCCCC3)[C@@]3(C(=O)Nc4cc(Cl)ccc43)[C@H]2c2cccc(Cl)c2F)cc1` (stereo partly drawn) [Cpd. No. 3, (3′R,4'S,5′R)-6″-chloro-4′-(3-chloro-2-fluorophenyl)-N-(4-((1-((2-(2,6-dioxopiperidin-3-yl)-1,3-dioxoisoindolin-4-yl)amino)-2-oxo-7,10,13-trioxa-3-azahexadecan-16-yl)carbamoyl)phenyl)-2″-oxodispiro[cyclohexane-1,2′-pyrrolidine-3′,3″-indoline]-5′-carboxamide], the IC50 in the assay with RS4; 11 cell line came to 22 nM; in the assay on MV4-11 cell line, 5.6 nM.

Regarding `O=C1CCC(N2C(=O)c3cccc(OCCOCCOCCOCCNC(=O)c4ccc(NC(=O)[C@@H]5NC6(CCCCC6)[C@@]6(C(=O)Nc7cc(Cl)ccc76)[C@H]5c5cccc(Cl)c5F)cc4)c3C2=O)C(=O)N1` (stereo partly drawn) [Cpd. No. 4, (3′R,4'S,5′R)-6″-chloro-4′-(3-chloro-2-fluorophenyl)-N-(4-((2-(2-(2-(2-((2-(2,6-dioxopiperidin-3-yl)-1,3-dioxoisoindolin-4-yl)oxy)ethoxy)ethoxy)ethoxy)ethyl)carbamoyl)phenyl)-2″-oxodispiro[cyclohexane-1,2′-pyrrolidine-3′,3″-indoline]-5′-carboxamide], the IC50 turned out to be 14 nM with RS4; 11 cell line and 6 nM in the assay with MV4-11 cell line.

With `O=C1CCC(N2C(=O)c3cccc(NCCCOCCOCCOCCCNC4CCN(C(=O)c5ccc(NC(=O)[C@@H]6NC7(CCCCC7)[C@@]7(C(=O)Nc8cc(Cl)ccc87)[C@H]6c6cccc(Cl)c6F)cc5)CC4)c3C2=O)C(=O)N1` (stereo partly drawn) [Cpd. No. 5, (3′R,4'S,5′R)-6″-chloro-4′-(3-chloro-2-fluorophenyl)-N-(4-(4-((3-(2-(2-(3-((2-(2,6-dioxopiperidin-3-yl)-1,3-dioxoisoindolin-4-yl)amino)propoxy)ethoxy)ethoxy)propyl)amino)piperidine-1-carbonyl)phenyl)-2″-oxodispiro[cyclohexane-1,2′-pyrrolidine-3′,3″-indoline]-5′-carboxamide], the IC50 in the assay on RS4; 11 cell line was determined as 2.2 nM; in the assay on MV4-11 cell line, 15 nM.

In the case of `O=C1CCC(N2C(=O)c3cccc(NCCOCCOCCOCCOc4ccc(NC(=O)c5ccc(NC(=O)[C@@H]6NC7(CCCCC7)[C@@]7(C(=O)Nc8cc(Cl)ccc87)[C@H]6c6cccc(Cl)c6F)cc5)cc4)c3C2=O)C(=O)N1` (stereo partly drawn) [Cpd. No. 6, (3′R,4'S,5′R)-6″-chloro-4′-(3-chloro-2-fluorophenyl)-N-(4-((4-(2-(2-(2-(2-((2-(2,6-dioxopiperidin-3-yl)-1,3-dioxoisoindolin-4-yl)amino)ethoxy)ethoxy)ethoxy)ethoxy)phenyl)carbamoyl)phenyl)-2″-oxodispiro[cyclohexane-1,2′-pyrrolidine-3′,3″-indoline]-5′-carboxamide], the IC50 worked out at 38 nM with RS4; 11 cell line and 37 nM with MV4-11 cell line.

As for `O=C1CCC(N2C(=O)c3cccc(NCCNC(=O)c4ccc(NC(=O)[C@@H]5NC6(CCCCC6)[C@@]6(C(=O)Nc7cc(Cl)ccc76)[C@H]5c5cccc(Cl)c5F)cc4)c3C2=O)C(=O)N1` (stereo partly drawn) [Cpd. No. 7, (3′R,4'S,5′R)-6″-chloro-4′-(3-chloro-2-fluorophenyl)-N-(4-((2-((2-(2,6-dioxopiperidin-3-yl)-1,3-dioxoisoindolin-4-yl)amino)ethyl)carbamoyl)phenyl)-2″-oxodispiro[cyclohexane-1,2′-pyrrolidine-3′,3″-indoline]-5′-carboxamide], the IC50 came to 15 nM in the assay on RS4; 11 cell line and 20 nM with MV4-11 cell line.

For the compound `O=C1CCC(N2C(=O)c3cccc(NCCCCNC(=O)c4ccc(NC(=O)[C@@H]5NC6(CCCCC6)[C@@]6(C(=O)Nc7cc(Cl)ccc76)[C@H]5c5cccc(Cl)c5F)cc4)c3C2=O)C(=O)N1` (stereo partly drawn) [Cpd. No. 9, (3′R,4'S,5′R)-6″-chloro-4′-(3-chloro-2-fluorophenyl)-N-(4-((4-((2-(2,6-dioxopiperidin-3-yl)-1,3-dioxoisoindolin-4-yl)amino)butyl)carbamoyl)phenyl)-2″-oxodispiro[cyclohexane-1,2′-pyrrolidine-3′,3″-indoline]-5′-carboxamide], the IC50 with RS4; 11 cell line was found to be 10 nM; with MV4-11 cell line it was 163 nM.

In the case of `CC(C)[C@@H](CS(=O)(=O)C(C)C)N1C(=O)[C@@](C)(CC(=O)NCCCOCCOCCOCCCNc2cccc3c2C(=O)N(C2CCC(=O)NC2=O)C3=O)C[C@H](c2cccc(Cl)c2)[C@H]1c1ccc(Cl)cc1` (stereo partly drawn) [Cpd. No. 61, 2-((3R,5R,6S)-5-(3-chlorophenyl)-6-(4-chlorophenyl)-1-((S)-1-(isopropylsulfonyl)-3-methylbutan-2-yl)-3-methyl-2-oxopiperidin-3-yl)-N-(3-(2-(2-(3-((2-(2,6-dioxopiperidin-3-yl)-1,3-dioxoisoindolin-4-yl)amino)propoxy)ethoxy)ethoxy)propyl)acetamide], the IC50 in the assay on RS4; 11 cell line came to 98 nM.

Take `Cc1ncsc1-c1ccc(CNC(=O)[C@@H]2C[C@@H](O)CN2C(=O)[C@@H](NC(=O)CCCCNC(=O)c2ccc(NC(=O)[C@@H]3NC4(CCCCC4)[C@@]4(C(=O)Nc5cc(Cl)ccc54)[C@H]3c3cccc(Cl)c3F)cc2)C(C)(C)C)cc1` [compound 41]: the half-maximal inhibitory concentration (IC50) in the assay on RS4; 11 cell line stood at 991 nM.

The compound `Cc1ncsc1-c1ccc(CNC(=O)[C@@H]2C[C@@H](O)CN2C(=O)[C@@H](NC(=O)CCOCCOCCNC(=O)c2ccc(NC(=O)[C@@H]3NC4(CCCCC4)[C@@]4(C(=O)Nc5cc(Cl)ccc54)[C@H]3c3cccc(Cl)c3F)cc2)C(C)(C)C)cc1` [compound 42] showed an IC50 with RS4; 11 cell line of 677 nM.

In the assay with RS4; 11 cell line, `Cc1ncsc1-c1ccc(CNC(=O)[C@@H]2C[C@@H](O)CN2C(=O)[C@@H](NC(=O)CCOCCOCCOCCNC(=O)c2ccc(NC(=O)[C@@H]3NC4(CCCCC4)[C@@]4(C(=O)Nc5cc(Cl)ccc54)[C@H]3c3cccc(Cl)c3F)cc2)C(C)(C)C)cc1` [compound 43] returned an IC50 of 445 nM.
